Columns and labels:
[1] = target: SNAP-hSPR (sepiapterin reductase, SPR) (Homo sapiens, UniProt P35270); assay: biochemical; assay type: binding; settings: terbium labelled SNAP-hSPR / SSZ labelled SNAP-EGFP; read-out: hTR-FRET IC50
[2] = system: BH4 levels in SK-N-BE (2) cells; assay: SKN-N-BE (2) cellular assay, BH4 levels by LC-MS; assay type: cell-based; settings: Homo sapiens, SKNBE2, read-out: SK-N-BE(2) IC50, SK-N-BE (2) cells, BH4 levels by LC-MS

Chain of SNAP-hSPR (sepiapterin reductase, SPR) (P35270 whole entry): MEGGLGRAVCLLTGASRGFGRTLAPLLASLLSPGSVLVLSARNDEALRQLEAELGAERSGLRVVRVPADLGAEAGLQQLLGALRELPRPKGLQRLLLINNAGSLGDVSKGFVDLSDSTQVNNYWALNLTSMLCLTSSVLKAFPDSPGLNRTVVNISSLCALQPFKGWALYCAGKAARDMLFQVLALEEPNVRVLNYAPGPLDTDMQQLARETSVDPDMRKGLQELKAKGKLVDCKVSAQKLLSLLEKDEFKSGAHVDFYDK

SMILES | IC50 [1] | IC50 [2]
Cc1c(C(=O)N2CC[C@H](C)C[C@@H]2C(F)(F)F)cnn1-c1nc2c(c(=O)[nH]1)CCC2 (racemic) [Q-0480] | 9 nM | 300 nM
Cc1cc(=O)[nH]c(-n2ncc(C(=O)N3CCc4ccccc4[C@@H]3C)c2C)n1 (single isomer, unassigned) [Q-0339] | 9 nM | 1500 nM
Cc1cc(=O)[nH]c(-n2ncc(C(=O)N3CCc4ccccc4[C@H]3C)c2C)n1 (single isomer, unassigned) [Q-0340] | 7 nM | 1100 nM
Cc1cc(=O)[nH]c(-n2ncc(C(=O)N3c4ccccc4C[C@H]3C)c2C)n1 (single isomer, unassigned) [Q-0361] | 10 nM | 600 nM
Cc1cc(=O)[nH]c(-n2ncc(C(=O)N3c4ccccc4C[C@@H]3C)c2C)n1 (single isomer, unassigned) [Q-0372] | 5 nM | 300 nM
Cc1c(C(=O)N2c3ccccc3C[C@H]2C)cnn1-c1nc2ccsc2c(=O)[nH]1 (single isomer, unassigned) [Q-0414] | 6 nM | 300 nM
Cc1c(C(=O)N2c3ccccc3C[C@@H]2C)cnn1-c1nc2ccsc2c(=O)[nH]1 (single isomer, unassigned) [Q-0415] | 30 nM | 1200 nM
Cc1nc(-n2ncc(C(=O)N3c4ccccc4C[C@H]3C)c2C)[nH]c(=O)c1C (single isomer, unassigned) [Q-0416] | 20 nM | 2800 nM
Cc1c(C(=O)N2CCC[C@@H](C(F)(F)F)C2)cnn1-c1nc2c(c(=O)[nH]1)CCC2 (single isomer, unassigned) [Q-0474] | 7 nM | 600 nM
Cc1c(C(=O)N2CCC[C@H](C(F)(F)F)C2)cnn1-c1nc2c(c(=O)[nH]1)CCC2 (single isomer, unassigned) [Q-0475] | 5 nM | 300 nM
Cc1cc(=O)[nH]c(-n2ncc(C(=O)N3CCc4ccccc43)c2C)n1 [Q-0001] | 20 nM | 2700 nM
Cc1cc(=O)[nH]c(-n2nc(C)c(CCC(=O)Nc3ccc(Cl)cc3)c2C)n1 [Q-0009] | 300 nM | 22000 nM
Cc1cc(=O)[nH]c(-n2ncc(C(=O)NC3CCCC3)c2C)n1 [Q-0280] | 60 nM | 16000 nM
Cc1cc(=O)[nH]c(-n2nc(C)c(CCC(=O)N3CCCC3)c2C)n1 [Q-0281] | 60 nM | 9000 nM
CCN1CCN(C(=O)c2cnn(-c3nc(C)c(C)c(=O)[nH]3)c2C)CC1 [Q-0282] | 30 nM | 4400 nM
Cc1cc(=O)[nH]c(-n2ncc(C(=O)N3CCc4ccc(C(F)(F)F)cc4C3)c2C)n1 [Q-0298] | 20 nM | 1500 nM
Cc1cc(=O)[nH]c(-n2ncc(C(=O)N3CCN(c4ccccn4)CC3)c2C)n1 [Q-0299] | 5 nM | 1200 nM
Cc1cc(=O)[nH]c(-n2ncc(C(=O)N3CCc4cccnc4C3)c2C)n1 [Q-0300] | 9 nM | 5000 nM
Cc1cc(=O)[nH]c(-n2ncc(C(=O)N3Cc4ccccc4C3)c2C)n1 [Q-0302] | 9 nM | 1200 nM
Cc1cc(=O)[nH]c(-n2ncc(C(=O)N3c4ccccc4CC3C)c2C)n1 (stereo not drawn) [Q-0303] | 7 nM | 900 nM
Cc1cc(=O)[nH]c(-n2ncc(C(=O)N3CCS(=O)(=O)CC3)c2C)n1 [Q-0304] | 40 nM | 67000 nM
Cc1cc(=O)[nH]c(-n2ncc(C(=O)NC34CC5CC(CC(C5)C3)C4)c2C)n1 [Q-0305] | 30 nM | 4600 nM
COc1ccc2c(c1)CN(C(=O)c1cnn(-c3nc(C)cc(=O)[nH]3)c1C)CC2 [Q-0307] | 9 nM | 4200 nM

SMILES | IC50 [1] | IC50 [2]
Cc1cc(=O)[nH]c(-n2ccc(C(=O)N3CCc4ccccc4C3)n2)n1 [Q-0308, 6-methyl-2-[3-(1,2,3,4-tetrahydroisoquinoline-2-carbonyl)-1H-pyrazol-1-yl]-3,4-dihydropyrimidin-4-one] | 20 nM | 2000 nM
COC(=O)c1cnn(-c2nc(C)cc(=O)[nH]2)c1C [Q-0310] | 60 nM | 12000 nM
Cc1cc(=O)[nH]c(-n2ncc(CN3CCc4ccccc4C3)c2C)n1 [Q-0311] | 40 nM | 11000 nM
Cc1cc(=O)[nH]c(-n2cc(C(=O)N3CCc4ccccc4C3)nn2)n1 [Q-0312, 6-methyl-2-[4-(1,2,3,4-tetrahydroisoquinoline-2-carbonyl)-1H-1,2,3-triazol-1-yl]-3,4-dihydropyrimidin-4-one] | 20 nM | 10000 nM
Cc1cc(=O)[nH]c(-n2ncc(C(=O)N3CCc4ccccc4C3C)c2C)n1 (stereo not drawn) [Q-0313] | 6 nM | 1500 nM
Cc1cc(=O)[nH]c(-n2cc(C(=O)N3CCc4ccccc4C3)cn2)n1 [Q-0314] | 20 nM | 5800 nM
Cc1cc(=O)[nH]c(-n2ncc(C(=O)N(C)C)c2C)n1 [Q-0317] | 60 nM | 20000 nM
Cc1cc(=O)[nH]c(-n2ncc(C(=O)N(C)Cc3ccccc3)c2C)n1 [Q-0318] | 6 nM | 2100 nM
Cc1cc(=O)[nH]c(-n2ncc(C(=O)N3CCc4ccccc4C3)c2C(C)C)n1 [Q-0319] | 10 nM | 2200 nM
Cc1c(C(=O)N2CCc3ccccc3C2)cnn1-c1nc2ccccc2c(=O)[nH]1 [Q-0323] | 300 nM | 35000 nM
Cc1cc(=O)[nH]c(-n2ncc(C(=O)N3CCc4ccc(S(=O)(=O)N5CCOCC5)cc4C3)c2C)n1 [Q-0327] | 7 nM | 12000 nM
Cc1cc(=O)[nH]c(-n2ncc(C(=O)N3CCc4cn[nH]c4C3)c2C)n1 [Q-0328] | 10 nM | 53000 nM
Cc1cc(=O)[nH]c(-n2ncc(C(=O)N3C4CCC3CC4)c2C)n1 [Q-0329] | 10 nM | 3500 nM
Cc1cc(=O)[nH]c(-n2ncc(C(=O)NC3CCCC3)c2C(C)C)n1 [Q-0330] | 20 nM | 6100 nM
Cc1cc(=O)[nH]c(-n2ncc(C(=O)NC3CCCC3)c2C(F)F)n1 [Q-0331] | 80 nM | 15000 nM
Cc1cc(=O)[nH]c(-n2ncc(C(=O)N3CCc4ccccc4C3)c2C(F)F)n1 [Q-0332] | 10 nM | 2500 nM
Cc1cc(=O)[nH]c(-n2ccc(C(=O)NC3CCCC3)n2)n1 [Q-0333] | 20 nM | 12000 nM
Cc1cc(=O)[nH]c(-n2ncc(C(=O)NC3CCCC3)c2C(F)(F)F)n1 [Q-0334] | 80 nM | 49000 nM
Cc1cc(=O)[nH]c(-n2ncc(C(=O)N3CCC(C)(C)C3)c2C)n1 [Q-0341] | 5 nM | 1800 nM
Cc1cc(=O)[nH]c(-n2ncc(C(=O)N3CCc4ccccc4C3)c2C(F)(F)F)n1 [Q-0342] | 10 nM | 2400 nM
Cc1cc(=O)[nH]c(-n2ccc(C(=O)N3CCOCC3)n2)n1 [Q-0343] | 100 nM | 40000 nM
Cc1cc(=O)[nH]c(-n2ncc(C(=O)NCc3cnccn3)c2C)n1 [Q-0344] | 70 nM | 23000 nM
Cc1cc(=O)[nH]c(-n2ncc(C(=O)N3CCc4[nH]ncc4C3)c2C)n1 [Q-0345] | 10 nM | 78000 nM

SMILES | IC50 [1] | IC50 [2]
CCCN(C)C(=O)c1cnn(-c2nc(C)cc(=O)[nH]2)c1C [Q-0346] | 8 nM | 5300 nM
CCCN(CC)C(=O)c1cnn(-c2nc(C)cc(=O)[nH]2)c1C [Q-0347] | 10 nM | 7500 nM
CCN(CC)C(=O)c1cnn(-c2nc(C)cc(=O)[nH]2)c1C [Q-0348] | 10 nM | 6400 nM
Cc1cc(=O)[nH]c(-n2ncc(C(=O)N3CCOCC3)c2C(F)F)n1 [Q-0349] | 30 nM | 57000 nM
CCN(C)C(=O)c1cnn(-c2nc(C)cc(=O)[nH]2)c1C [Q-0350] | 20 nM | 11000 nM
CCCN(CCC)C(=O)c1cnn(-c2nc(C)cc(=O)[nH]2)c1C [Q-0351] | 10 nM | 4600 nM
Cc1cc(=O)[nH]c(-n2ncc(C(=O)N3CCOCC3)c2C)n1 [Q-0352] | 20 nM | 13000 nM
Cc1cc(=O)[nH]c(-n2ncc(C(=O)N3CCc4ccccc4C3)c2CC(C)C)n1 [Q-0353] | 50 nM | 15000 nM
Cc1c(C(=O)N2CCC(O)(Cc3ccc(F)cc3)C2)cnn1-c1nn2cccc2c(=O)[nH]1 (stereo not drawn) [Q-1028] | – | 1100 nM
Cc1c(C(=O)N2CCC(N3CCC[C@H]3C(F)(F)F)CC2)cnn1-c1nn2cccc2c(=O)[nH]1 [Q-1029] | – | 1000 nM
Cc1c(C(=O)N2CCC(N3CC[C@H](F)C3)C2)cnn1-c1nn2cccc2c(=O)[nH]1 (stereo partly drawn) [Q-1030] | – | 3100 nM
Cc1c(C(=O)N2CC(N3CC[C@H](F)C3)C2)cnn1-c1nn2cccc2c(=O)[nH]1 [Q-1031] | – | 2300 nM
Cc1c(C(=O)N2CC(N3CC(O)(C(F)(F)F)C3)C2)cnn1-c1nn2cccc2c(=O)[nH]1 [Q-1032] | – | 10000 nM
Cc1c(C(=O)N2CC3CCCC(C2)N3CC(F)(F)F)cnn1-c1nn2cccc2c(=O)[nH]1 [Q-1035] | – | 100 nM
Cc1c(C(=O)N2CC3CCCC(C2)N3CCC(F)(F)F)cnn1-c1nn2cccc2c(=O)[nH]1 [Q-1036] | – | 70 nM
Cc1c(C(=O)N2C3CCC2CC(F)(c2ccc(Cl)cc2)C3)cnn1-c1nn2cccc2c(=O)[nH]1 (stereo not drawn) [Q-1037] | – | 71 nM
Cc1c(C(=O)N2CCC(C)C(F)C2)cnn1-c1nn2cccc2c(=O)[nH]1 (stereo not drawn) [Q-1039] | – | 300 nM
Cc1c(C(=O)N2CCC(C)CC2)cnn1-c1nn2cccc2c(=O)[nH]1 [Q-1040] | – | 300 nM
Cc1c(C(=O)N2CC(N3CC(F)(C(F)(F)F)C3)C2)cnn1-c1nn2cccc2c(=O)[nH]1 [Q-1042] | – | 1000 nM
Cc1c(C(=O)N2CC[C@@H](COc3nccc(Cl)n3)C2)cnn1-c1nn2cccc2c(=O)[nH]1 [Q-1043] | – | 1400 nM
Cc1c(C(=O)N2CCC[C@H](OCC(F)(F)F)C2)cnn1-c1nn2cccc2c(=O)[nH]1 [Q-1044] | – | 1000 nM
Cc1c(C(=O)N2CC3CCCC(C2)N3C(=O)OC(C)(C)C)cnn1-c1nc2c(c(=O)[nH]1)CCC2 [Q-1045] | – | 100 nM
Cc1c(C(=O)N2CCC(F)(F)C2)cnn1-c1nn2cccc2c(=O)[nH]1 [Q-1050] | – | 1400 nM

From patent US9963462B2 (priority 2015, dated 2018)
